Experimental data taken from the supplement of paper PMC11451515.

Legend:
Conditions in all cases: 48 h
NOMO1 [1] = test: AUC of viability dose-response curve (% viability x log10 dose units); higher = less sensitive
Procedure, shortened: (§1)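 Leukemia cells adapted to each medium were seeded in 1536-well plates (500 or 1000 cells/well). They were dosed with library compounds in DMSO at 11 threefold doses, 47 μM to 0.79 nM, for 48 h at 37°C. CellTiter-Glo One luminescence was normalised per plate to DMSO and cell-free wells. Area under the curve was integrated by trapezoidal rule over log10 doses on a four-parameter log-logistic fit; curves exceeding full viability were scaled and curves failing quality control removed.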

P12-Ichikawa [2] = test: as above
Procedure, shortened: as §1

SEM cells [3] = test: as above
Procedure, shortened: as §1

NOMO1 [4] = test: cell viability relative to DMSO control; higher = less cytotoxic
Procedure, shortened: (§2)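 Three leukemia lines were tested: NOMO1 and SEM at 500 cells/well and P12-Ichikawa at 1000 cells/well. Each was adapted for at least four passages in each medium and seeded in 5 μl in 1536-well plates, and library compounds in DMSO were pin-dosed from 47 μM to 0.79 nM in 11 threefold steps. After 48 h at 37°C, CellTiter-Glo One luminescence was read. Viability is a percentage relative to DMSO wells on each plate, with cell-free wells as background.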

P12-Ichikawa [5] = test: as above
Procedure, shortened: as §2

SEM cells [6] = test: as above
Procedure, shortened: as §2

Cc1ncc([N+](=O)[O-])n1CCO
AUC of viability dose-response curve
Conditions | NOMO1 [1] | P12-Ichikawa [2] | SEM cells [3]
HPLM + 10% dialyzed FBS | 467 | 477 | 467
RPMI 5 mM glucose + 10% FBS | 462 | 472 | 477
RPMI 5 mM glucose + 10% dialyzed FBS | 461 | 469 | 449

cell viability [%]
Conditions | NOMO1 [4] | P12-Ichikawa [5] | SEM cells [6]
HPLM + 10% dialyzed FBS, 0.000781 µM | 112 | 116 | 100
HPLM + 10% dialyzed FBS, 0.00234 µM | 122 | 121 | 94
HPLM + 10% dialyzed FBS, 0.00702 µM | 126 | 126 | 104
HPLM + 10% dialyzed FBS, 0.0211 µM | 145 | 125 | 104
HPLM + 10% dialyzed FBS, 0.0632 µM | 130 | 118 | 112
HPLM + 10% dialyzed FBS, 0.19 µM | 122 | 123 | 105
HPLM + 10% dialyzed FBS, 0.569 µM | 120 | 120 | 103
HPLM + 10% dialyzed FBS, 1.71 µM | 137 | 132 | 111
HPLM + 10% dialyzed FBS, 5.12 µM | 116 | 124 | 118
HPLM + 10% dialyzed FBS, 15.4 µM | 142 | 110 | 100
HPLM + 10% dialyzed FBS, 46.1 µM | 120 | 123 | 108
RPMI 5 mM glucose + 10% FBS, 0.000781 µM | – | 106 | 104
RPMI 5 mM glucose + 10% FBS, 0.00234 µM | – | 115 | 118
RPMI 5 mM glucose + 10% FBS, 0.00702 µM | – | 123 | 103
RPMI 5 mM glucose + 10% FBS, 0.0211 µM | – | 127 | 111
RPMI 5 mM glucose + 10% FBS, 0.0632 µM | – | 112 | 118
RPMI 5 mM glucose + 10% FBS, 0.19 µM | – | 112 | 109
RPMI 5 mM glucose + 10% FBS, 0.569 µM | – | 127 | 109
RPMI 5 mM glucose + 10% FBS, 1.71 µM | – | 124 | 117
RPMI 5 mM glucose + 10% FBS, 5.12 µM | – | 123 | 121
RPMI 5 mM glucose + 10% FBS, 15.4 µM | – | 116 | 105
RPMI 5 mM glucose + 10% FBS, 46.1 µM | – | 120 | 104
RPMI 5 mM glucose + 10% dialyzed FBS, 0.000781 µM | 113 | 121 | 107
RPMI 5 mM glucose + 10% dialyzed FBS, 0.00234 µM | 113 | 129 | 109
RPMI 5 mM glucose + 10% dialyzed FBS, 0.00702 µM | 125 | 122 | 123
RPMI 5 mM glucose + 10% dialyzed FBS, 0.0211 µM | 131 | 129 | 122
RPMI 5 mM glucose + 10% dialyzed FBS, 0.0632 µM | 137 | 135 | 114
RPMI 5 mM glucose + 10% dialyzed FBS, 0.19 µM | 140 | 135 | 146
RPMI 5 mM glucose + 10% dialyzed FBS, 0.569 µM | 132 | 127 | 127
RPMI 5 mM glucose + 10% dialyzed FBS, 1.71 µM | 142 | 125 | 115
RPMI 5 mM glucose + 10% dialyzed FBS, 5.12 µM | 129 | 131 | 122
RPMI 5 mM glucose + 10% dialyzed FBS, 15.4 µM | 136 | 129 | 124
RPMI 5 mM glucose + 10% dialyzed FBS, 46.1 µM | 130 | 128 | 130
